Test results taken from ChEMBL document CHEMBL5120894, “Isolation, Biosynthetic Investigation, and Biological Evaluation of Maniwamycin G, an Azoxyalkene Compound from Streptomyces sp. TOHO-M025” (J Nat Prod, 2022).
Converted amounts (≈) assume the structure as drawn. The source made the active and inactive calls. The calls are words filed in the database; no cut-off is given here.

Experiments:
[1] = Inhibition of quorum sensing system in Chromobacterium violaceum CV026 assessed as reduction in violacein production incubated for 24 hrs
[2] = Inhibition of quorum sensing system in Chromobacterium violaceum CV026 assessed as reduction in violacein production at 1 mg/ml incubated for 24 hrs relative to control

SMILES | IC50 [1] [µg/mL] | further results
CCCC/C=C/[N+]([O-])=N/[C@H](C)[C@H](C)O | 120 (≈ 599 µM) | 
CCCC/C=C/[N+]([O-])=N/[C@H](C)[C@@H](C)O | 120 (≈ 599 µM) | 
CCCC(O)/C=C/[N+]([O-])=N/C(C)C(C)O (stereo not given) |  | inhibition [1]: Active
CCCC/C=C/[N+]([O-])=N/[C@H](C)[C@H](O)CC(=O)OC |  | inhibition [2]: 40%
CCCC/C=C/[N+]([O-])=N/C(C)C(O)C(N)=O (stereo not given) | 500 (≈ 2180 µM) | 
